Assay results published in patent publication EP0369083A1, “Cardioprotective tocopherol analogs” (MERRELL DOW PHARMACEUTICALS INC., priority 1988, dated 1990).
“And” between values parts separate entries of the source, which are not always exact repeats. Identical values can stand only once. Each block holds one molecule with its values, some of them ahead of it.

Experiments:
[1] = Free radical scavenging: inhibition of autoxidation of 1-epinephrine (Misra and Fridovich assay); assay type: biochemical; conditions: 1-epinephrine 1 x 10⁻⁴M, EDTA 1 x 10⁻⁴M, 30°C, absorbance at 480 nm; read-out: 50% inhibition of the autoxidation rate (ID₅₀)
Protocol: 2-(3,4-dihydro-6-hydroxy-2,5,7,8-tetramethyl-2H-1-benzopyran-2-yl)ethyl-N,N,N-trimethylammonium bromide, described in Example 1, was evaluated for its ability to reduce superoxide radicals in an assay described by H.P. Misra and J. Fridovich, 1972, J. Biol. Chem. 247, 3170-5. In this assay, the rate of autoxidation of 1-epinephrine (1 x 10⁻⁴M) in the presence of EDTA (1 x 10⁻⁴M) at 30°C is followed spectrophotometrically following the increase of absorbance at 480 mn. […] For comparison, 3,4-dihydro-6-hydroxy-2,5,7,8-tetramethyl-2H-1-benzopyran -2-carboxylic acid (CAS 53188-07-1) gave ID₅₀ = 105 ± 8 µM and d,1-penicillamine (CAS 52-67-5) ID₅₀ = 73 µM in parallel experiments. Misra and Fridovich report that bovine superoxide dismutase gave 50% inhibition at […].

[2] = system: ligation-induced infarcted and reperfused rats; test: Cardioprotective effects: coronary ligation 60 min and reperfusion 30 min, infarcted area versus area at risk; assay type: in vivo
Protocol: 2-(3,4-Dihydro-2,5,7,8-tetramethyl-6-methyl-carbonyloxy-2H-1-benzopyran-2-yl) ethyl-N,N,N-trimethyl-ammonium bromide was evaluated in ligation-induced infarcted and reperfused rats as follows. One of two groups of rats was infused intravenously with a solution of test compound in saline at a rate of 2.3 ml/h (10 mg/kg/h). The control group was infused with saline at the same rate. After 10 min of drug infusion, coronary arteries were ligated surgically for 60 min, ligation was loosened to allow reperfusion for 30 min. The ligation was retied and a dye (Evans Blue) was injected. The animals were sacrificed and the heart ventricles were removed and weighed. The unstained tissue was dissected and weighed; this represents the "area at risk", i.e. the area that was deprived of blood supply by ligation. To determine the infarcted area, the tissue was incubated with 2,3,5-triphenyltetrazolium chloride. Infarcted tissue became light colored and could be dissected and weighed. Thus, for each rat that survived the ligation a measurement of "area at risk" and of "infarcted area" was obtained and the ratio was calculated as given in Tables II and III.

[3] = Affinity for cardiac tissue: radioactivity in heart and blood after intravenous 14C-labelled compound; assay type: in vivo; parameters: ng equiv/g heart: unit not given here; conditions: rats, 0.91 mg base/kg intravenous
Protocol: Following the procedure described in Example 1, but using ¹⁴C-methyl p-toluenesulfonate in place of "cold material", ¹⁴C-labelled 2-(3,4-dihydro-2,5,7,8-tetramethyl-6-methylcarbonyloxy-2H-1-benzopyranan-2-yl)ethyl-N,N,N-tri-¹⁴C-methylammonium p-toluenesulfonate was synthesized. The preparation was diluted with "cold material" to 11.74 µCi/mg base.
24 rats were given 0.91 mg base/kg by intravenous route (by canula into the jugular vein). The animals were sacrificed in groups of 3 at the time periods indicated in Table I. Immediately before sacrifice a 0.5 ml blood sample was taken from an indwelling catheter in the carotid artery. The hearts were removed, blotted and weighed. The samples of tissue and blood were solubiized with Luma Solve (a quaternary ammonium hydroxide preparation) and radioactivity was determined in a scintillation counter.

[4] = treated group, 10 mg/kg/h intravenous infusion, individual rats No. 1-10, 10 mg/kg

Compound: Cc1c(C)c2c(c(C)c1O)CCC(C)(C(=O)O)O2 (stereo not drawn) [3,4-dihydro-6-hydroxy-2,5,7,8-tetramethyl-2H-1-benzopyran-2-carboxylic acid]
- IC50 [1]: 105 ± 8 µM

Compound: Cc1c(C)c2c(c(C)c1O)CCC(C)(CC[N+](C)(C)C)O2 (stereo not drawn) [Example 1, 2-(3,4-Dihydro-6-hydroxy-2,5,7,8-tetramethyl-2H-1-benzo-pyran-2-yl)ethyl-N,N,N-trimethylammonium bromide]
- IC50 [1]: 138 ± 14 µM

Compound: CC(=O)Oc1c(C)c(C)c2c(c1C)CCC(C)(CC[N+](C)(C)C)O2.[Br-] (stereo not drawn) [Example 2, 2-(3,4-Dihydro-2,5,7,8-tetramethyl-6-methylcarbonyloxy-2H-1-benzopyran-2-yl)ethyl-N,N,N-trimethylammonium bromide]
- reduction of infarction ([2]; treated (10 mg/kg/h) versus saline control, statistically significant (ANOVA) at p = 0.02): 42.7%
- Ratio % (infarcted tissue / tissue at risk), average ([2]; treated group, 10 mg/kg/h intravenous infusion, average of 10 rats, control group 83.31, 10 mg/kg): 47.8% and 47.75%
- Infarcted tissue,mg [2, 4]: 23 mg and 27 mg and 299 mg and 39 mg and 33 mg and 247 mg and 193 mg and 134 mg and 123 mg and 157 mg
- Ratio % (infarcted tissue / tissue at risk) [2, 4]: 45.2% and 9.4% and 97.5% and 15.5% and 18.9% and 64.8% and 62.1% and 64.5% and 31.2% and 68.4%

- Ratio heart/blood ([3]; 5 min after administration): 3.05 ± 1.46
- ng equiv/g heart ([3]; 5 min after administration): 1.591 ± 0.22
- ng equiv/ml blood ([3]; 5 min after administration): 0.434 ± 0.351 ng equiv/ml blood
- Ratio heart/blood ([3]; 15 min after administration): 6.90 ± 8.34
- ng equiv/g heart ([3]; 15 min after administration): 1.728 ± 0.422
- ng equiv/ml blood ([3]; 15 min after administration): 0.590 ± 0.295 ng equiv/ml blood
- Ratio heart/blood ([3]; 30 min after administration): 17.33 ± 5.42
- ng equiv/g heart ([3]; 30 min after administration): 1.905 ± 0.278
- ng equiv/ml blood ([3]; 30 min after administration): 0.124 ± 0.032 ng equiv/ml blood
- Ratio heart/blood ([3]; 1 hour after administration): 20.09 ± 2.54
- ng equiv/g heart ([3]; 1 hour after administration): 2.092 ± 0.406
- ng equiv/ml blood ([3]; 1 hour after administration): 0.096 ± 0.008 ng equiv/ml blood
- Ratio heart/blood ([3]; 2 hours after administration): 21.90 ± 3.56
- ng equiv/g heart ([3]; 2 hours after administration): 1.395 ± 0.042
- ng equiv/ml blood ([3]; 2 hours after administration): 0.086 ± 0.041 ng equiv/ml blood
- ng equiv/g heart ([3]; 4 hours after administration): 1.253 ± 0.248
- ng equiv/ml blood ([3]; 4 hours after administration): 0.054 ± 0.013 ng equiv/ml blood
- Ratio heart/blood ([3]; 4 hours after administration (maximum), listed as 2-(3,4-dihydro-2,5,7,8-tetramethyl-6-methylcarbonyloxy-2H-1-benzopyranan-2-yl)et, p-toluenesulfonate): 27.15 and 27.15 ± 4.30
- Ratio heart/blood ([3]; 6 hours after administration): 18.62 ± 2.77
- ng equiv/g heart ([3]; 6 hours after administration): 0.863 ± 0.067
- ng equiv/ml blood ([3]; 6 hours after administration): 0.048 ± 0.007 ng equiv/ml blood
- Ratio heart/blood ([3]; 8 hours after administration): 15.12 ± 2.69
- ng equiv/g heart ([3]; 8 hours after administration): 0.652 ± 0.116
- ng equiv/ml blood ([3]; 8 hours after administration): 0.048 ± 0.012 ng equiv/ml blood
- concentration of drug in heart tissue ([3]; after 8 h): 0.65 µg equiv/g
- affinity for heart tissue ([3]; conclusion in words): marked affinity for heart tissue
Compound: CC(=O)Oc1c(C)c(C)c2c(c1C)CCC(C)(CC[N+](C)(C)C)O2.Cc1ccc(S(=O)(=O)[O-])cc1 (stereo not drawn) [Example 9, 2-(3,4-Dihydro-2,5,7,8-tetramethyl-6-methylcarbonyloxy-2H-1-benzopyran-2-yl)ethyl-N,N,N-trimethylammonium p-toluenesulfonate]

Compound: CC(C)(S)[C@@H](N)C(=O)O [d,1-penicillamine]
- IC50 [1]: 73 µM
